Measurements reported in PubChem BioAssay (NCI).
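Assay format: 96-well plates, 48-hour exposure. Abbreviation: GI50, concentration required for 50% inhibition of growth. TGI is the concentration that stops growth completely.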

Assays:
Assay in all cases: DTP human tumour cell line panel, 48 h
[1] = system: COLO 205 colon
[2] = system: DU-145 prostate
[3] = system: HOP-62 NSCLC
[4] = system: MCF7 breast
[5] = system: OVCAR-5 ovarian
[6] = system: SF-539 CNS
[7] = system: SK-MEL-28 melanoma
[8] = system: UACC-257 melanoma

SMILES	GI50 [1] [µM]	TGI [1] [µM]	GI50 [2] [µM]	TGI [2] [µM]	GI50 [3] [µM]	TGI [3] [µM]	GI50 [4] [µM]	TGI [4] [µM]	GI50 [5] [µM]	TGI [5] [µM]	GI50 [6] [µM]	TGI [6] [µM]	GI50 [7] [µM]	TGI [7] [µM]	GI50 [8] [µM]	TGI [8] [µM]
COc1ccccc1/C=C/C(=O)c1c(O)cc2occc2c1OC	> 100	> 100	23.5	> 100	19.3	43.9	9.56	> 100	> 100	> 100	24.3	> 100	> 100	> 100	> 100	> 100
CCNCCC1(CC)C(=O)NC(=O)NC1=O	–	> 100	–	> 100	–	> 100	–	> 100	–	> 100	–	> 100	–	> 100	–	> 100
NC(=NCCCC1(c2ccccc2)CCCC1)Nc1ccc(Cl)cc1	1.69	3.44	1.8	3.29	1.69	3.36	1.65	3.19	–	–	1.75	3.23	–	–	1.82	3.56
Cc1ccc2c(c1)C(C)Cc1c(ncnc1-n1cnc3cc(C)ccc31)N2C (stereo not given)	0.0224	0.0553	0.0379	11.1	0.0352	15.6	0.0345	12.8	0.048	22.2	0.0218	0.0593	0.0743	15.8	5.34	21.4
O=C1/C=C/[C@@H](O)[C@@H]2C[C@@H](O)C[C@H]2/C=C/CCC[C@H](CCc2ccc(C(F)(F)F)cc2)O1	0.175	0.319	0.479	> 100	0.328	11	0.197	0.457	0.505	> 100	0.522	> 100	0.0405	0.361	0.182	> 40.2
COc1c2c3ccccc3nc-2n(C)c2ccccc12	6.73	49.4	9.48	45.5	8.61	33.6	4.31	33.1	8.43	> 100	8.83	25.9	14.7	36.9	21.9	55.6
CCC(=O)C1(c2ccccc2)CCN(C)CC1	–	> 100	–	> 100	–	> 100	–	> 100	–	> 100	–	–	–	> 100	–	> 100
COc1ccc(CCN2CCCN3C2=Nc2ccccc2S3(=O)=O)cc1	0.329	1.48	0.496	> 100	0.556	> 100	0.329	> 100	20.2	> 100	0.272	1.04	0.805	> 100	–	–
CC(C)CC1C(=O)N2CCC[C@H]2C2(O)O[C@](NC(=O)C3C=C4c5cccc6[nH]c(Br)c(c56)C[C@H]4N(C)C3)(C(C)C)C(=O)N12 (stereo not given in full)	–	> 100	–	> 100	–	> 100	4.92	> 100	–	> 100	–	> 100	–	> 100	16.7	> 100
COc1cc2c(F)nccc2cc1C(=O)N[C@@H](c1ccc(F)c(Cl)c1)[C@@H]1C[C@@H](O)CN1	3.1	19.4	6.84	24	7.09	25.3	0.575	12.1	13.1	45.6	0.0677	11.1	4.48	20.2	1.33	19.6
COC(=O)[C@H]1C(=O)[C@@]2(C)[C@H]([C@H](OC(=O)c3ccccc3)[C@]3(O)C[C@H](OC(=O)[C@H](O)[C@@H](NC(=O)c4ccc(F)cc4)c4ccccc4)C(C)=C1C3(C)C)[C@]1(OC(C)=O)CO[C@@H]1C[C@@H]2O	0.00709	0.0565	0.00708	0.023	0.0112	> 6.58	0.00354	> 25	0.0149	> 25	0.00749	0.0753	0.0154	22	0.0673	> 25
O=C(NCCc1ccccc1)C(c1ccccc1)(c1ccccc1)c1ccccc1	3.26	> 100	3.38	44.2	7.1	> 100	26	> 100	3.91	50.6	–	–	20.1	> 100	–	–
C=C(C)[C@@H]1CC[C@]2(C(N)=O)CC[C@]3(C)[C@H](CC[C@@H]4[C@@]5(C)CC[C@H](O)C(C)(C)[C@@H]5CC[C@]43C)[C@@H]12	3.63	15	3.21	10.1	3.21	12.8	2.91	11.2	3.78	16.5	1.78	3.4	10.9	42.3	13.2	> 100
COc1ccc(-c2nsc3c2NC(=O)CC3c2ccc(F)cc2)cc1 (stereo not given)	2.49	8.39	5.31	> 100	7.06	49	3.29	> 100	5.94	> 100	3.56	67.8	4.74	> 100	16.6	> 100
COC(=O)[C@H]1[C@@H](O)[C@@]2(O)c3c(OC)cc(O[C@@H]4O[C@@H]([C@H](O)CO)CO[C@H]4OC)cc3O[C@@]2(c2ccc(OC)cc2)[C@@H]1c1ccccc1	0.00309	0.00989	0.00416	0.046	0.00319	0.0181	0.00312	0.033	0.00383	0.0311	0.00187	0.00686	0.00321	0.0119	0.00627	0.0451
C#CCSc1n[nH]c(-c2ccco2)n1	–	> 100	–	> 100	–	> 100	–	> 100	–	> 100	–	> 100	–	> 100	–	> 100
